Biological target: T1, BRAF (Homo sapiens, UniProt P15056)
T1 construct: purchased Thermo Fisher Scientific (Life Technologies) SelectScreen
Assay: SelectScreen Z'LYTE
Format: biochemical
Details: ATP 100 µM
How it was run: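 Compound tested in SelectScreen activity assays, Z'LYTE for CSF1R, CDK1/cyclin B and MAP2K6 and Adapta for CAMK1. ATP for CAMK1 was listed as 10, and Km app was used for CSF1R. Results are expressed in percent.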

T1 sequence (P15056 whole entry): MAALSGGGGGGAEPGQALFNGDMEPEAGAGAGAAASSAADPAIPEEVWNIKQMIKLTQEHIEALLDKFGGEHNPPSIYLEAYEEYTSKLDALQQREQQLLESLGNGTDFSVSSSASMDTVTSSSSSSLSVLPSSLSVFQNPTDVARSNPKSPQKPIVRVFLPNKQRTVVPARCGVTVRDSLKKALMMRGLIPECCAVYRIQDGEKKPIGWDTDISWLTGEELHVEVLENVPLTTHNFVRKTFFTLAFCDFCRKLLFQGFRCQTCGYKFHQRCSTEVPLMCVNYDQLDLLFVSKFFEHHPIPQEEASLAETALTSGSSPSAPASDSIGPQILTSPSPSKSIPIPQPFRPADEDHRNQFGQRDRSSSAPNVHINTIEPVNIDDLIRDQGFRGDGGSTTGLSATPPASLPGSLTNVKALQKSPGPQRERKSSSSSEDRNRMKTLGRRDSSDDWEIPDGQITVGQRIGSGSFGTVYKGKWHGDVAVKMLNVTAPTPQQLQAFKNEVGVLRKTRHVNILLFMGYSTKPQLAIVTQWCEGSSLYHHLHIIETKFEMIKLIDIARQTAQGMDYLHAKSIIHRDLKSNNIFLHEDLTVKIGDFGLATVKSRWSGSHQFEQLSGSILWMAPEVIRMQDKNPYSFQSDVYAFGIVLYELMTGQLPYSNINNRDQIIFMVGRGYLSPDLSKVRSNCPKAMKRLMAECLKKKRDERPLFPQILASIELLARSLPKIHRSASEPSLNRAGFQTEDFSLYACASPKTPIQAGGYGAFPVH

SMILES: CN(C(=O)CN1CCOCC1)c1ccc2sc3c(-c4cccc5c(=O)cc(N6CC7CCC(C6)O7)oc45)cccc3c2c1 [NU5455]
- inhibition at 1 µM: 9.9%

From article PMC6934184, “Selective DNA-PKcs inhibition extends the therapeutic index of localized radiotherapy and chemotherapy” (The Journal of Clinical Investigation, 2019)
